ChEMBL document CHEMBL3045937, “Synthesis and hypoglycemic activity evaluation of 7-alkoxyl-rhein” (2012)

Key:
Homo sapiens = species on record: Homo sapiens; assay: Inhibition of alpha-glucoamylase (unknown origin) assessed as 1-Ki/Kc X 100% at 100 mg/l after 10 min spectrophotometry
[1] = Inhibition of alpha-glucoamylase (unknown origin) assessed as Ki/Kc at 100 mg/l after 10 min spectrophotometry; values are per cent of control; settings: Homo sapiens
Mus musculus [2] = assay: Hypoglycemic activity in alloxan-induced diabetic Mus musculus (mouse) assessed as blood glucose level at 20 mg/kg, qd for 14 days measured on 7th day (reference value: 19.79 +/- 1.28 mmol/l); assay type: functional
Mus musculus [3] = assay: Hypoglycemic activity in alloxan-induced diabetic Mus musculus (mouse) assessed as blood glucose level at 10 mg/kg, qd for 14 days measured on 7th day (reference value: 19.79 +/- 1.28 mmol/l); assay type: functional
Mus musculus [4] = assay: Hypoglycemic activity in alloxan-induced diabetic Mus musculus (mouse) assessed as blood glucose level at 50 mg/kg, qd for 14 days measured on 14th day (reference value: 19.04 +/- 1.27 mmol/l); assay type: functional
Mus musculus [5] = assay: Hypoglycemic activity in alloxan-induced diabetic Mus musculus (mouse) assessed as blood glucose level at 20 mg/kg, qd for 14 days measured on 14th day (reference value: 19.04 +/- 1.27 mmol/l); assay type: functional
Mus musculus [6] = assay: Hypoglycemic activity in alloxan-induced diabetic Mus musculus (mouse) assessed as blood glucose level at 10 mg/kg, qd for 14 days measured on 14th day (reference value: 19.04 +/- 1.27 mmol/l); assay type: functional
Mus musculus [7] = assay: Hypoglycemic activity in alloxan-induced diabetic Mus musculus (mouse) assessed as blood glucose level at 50 mg/kg, qd for 14 days measured on 7th day (reference value: 19.79 +/- 1.28 mmol/l); assay type: functional

| SMILES | inhibition (Homo sapiens) [%] | residual activity [1] [%] | Activity (Mus musculus [2]) [mmol/L] | Activity (Mus musculus [3]) [mmol/L] | Activity (Mus musculus [4]) [mmol/L] | Activity (Mus musculus [5]) [mmol/L] | Activity (Mus musculus [6]) [mmol/L] | Activity (Mus musculus [7]) [mmol/L] |
| --- | --- | --- | --- | --- | --- | --- | --- | --- |
| CCCCCCCCCCCCCCCCOc1cc(O)c2c(c1)C(=O)c1cc(C(=O)O)cc(O)c1C2=O | 29.8 | 70.2 |  |  |  |  |  |  |
| CCCCCCCCCCCCOc1cc(O)c2c(c1)C(=O)c1cc(C(=O)O)cc(O)c1C2=O | 50.7 | 49.3 |  |  |  |  |  |  |
| Cc1cc(O)c2c(c1)C(=O)c1cc(O)cc(O)c1C2=O | 23.6 | 76.4 |  |  |  |  |  |  |
| CCCCCCCCOc1cc(O)c2c(c1)C(=O)c1cc(C(=O)O)cc(O)c1C2=O | 60.6 | 39.4 | 16.79 | 17.05 | 7.03 | 10.04 | 12.03 | 10.05 |
| CCCCCCOc1cc(O)c2c(c1)C(=O)c1cc(C(=O)O)cc(O)c1C2=O | 54.5 | 45.5 |  |  |  |  |  |  |
| C[C@H]1O[C@H](O[C@H]2[C@H](O)[C@@H](O)[C@@H](O[C@H]3[C@H](O)[C@@H](O)C(O)O[C@@H]3CO)O[C@@H]2CO)[C@H](O)[C@@H](O)[C@@H]1N[C@H]1C=C(CO)[C@@H](O)[C@H](O)[C@H]1O (some centres not stated) [ACARBOSE] | 91.4 | 8.6 |  | 10.58 |  |  | 6.87 |  |
| CCCCOc1cc(O)c2c(c1)C(=O)c1cc(C(=O)O)cc(O)c1C2=O | 45 | 55 |  |  |  |  |  |  |
